# Patent US11732143B2, “Identification and characterization of novel corrosion inhibitor molecules” (ECOLAB USA INC., priority 2015, dated 2023)
# Tested on: live bacteria
# Assay: Biocide efficiency, fluorescence detection of ATP, percentage kill / viable bacteria
# Type: cell-based
# Conditions: for biocidal efficiency in conjunction with biocide 4: 120 ppm corrosion inhibitor + 100 ppm biocide 4 (glutaraldehyde); for biocidal efficiency of the corrosion inhibitor by itself (viable microorganisms): 120 ppm corrosion inhibitor alone
# Procedure: Biocidal efficiency of the biocide and biocide in conjunction with corrosion inhibitors were analyzed using fluorescence to indirectly detect the amount of ATP in a given sample. ATP provides a direct correlation to live bacteria (1fg of ATP=1 cell). Through a standard curve, it is the possible to translate the amount of ATP in a given sample to the number of cells/mL in a given sample. Percentage kill was calculated by normalizing the detected bacterial numbers in a biocide or a biocide and corrosion inhibitor treated sample to untreated sample.
Substance,biocidal efficiency in conjunction with biocide 4,biocidal efficiency of the corrosion inhibitor by itself (viable microorganisms)
2-hydroxylethyl-N-methylbutane-1-sulphonamide,does not have any biocidal properties,does not have any biocidal properties
Cocoamphodiproprionate sodium salt,modest increase in the biocidal properties of biocide 4,not efficient in reducing the number of viable microorganisms by itself
